Values of other authors in US20240180852A1, “TREATMENT FOR MALIGNANT PLEURAL EFFUSION IN HUMANS” (Signpath Pharma, Inc., priority 2021, published 2024).

Key:
[1] = in vivo

COc1cc(C=CC(=O)CC(=O)C=Cc2ccc(O)c(OC)c2)ccc1O [curcumin, 1,7-bis(4-hydroxy-3-methoxyphenyl)-1,6-heptadiene-3,5-dione]
bioavailability [1]: low bioavailability
solubility: low solubility
